Measurements: patent US9023878B2 (Neurophyxia B.V., priority 2010, dated 2015)

What was measured:
[1] = Surfactants: stepwise solubility in surfactant solutions in 5% dextrose; format: physicochemical; conditions: nominal 1.6 mg/ml, without addition of acid
Experimental: Stock solutions of the surfactant were prepared in 5% dextrose.

piglets = conditions: versus allopurinol or deferoxamine; cited from earlier work

N=C1N[C@H]2[C@H](CS[C@H]2CCCCC(=O)O)N1 [Formulation 2-IB, 2-iminobiotin]
solubility, visually judged [1]: did not dissolve in any of the surfactant solutions
effectiveness in preventing and/or treating effects of perinatal asphyxia (piglets): more effective
